Molecules are shown by their SMILES.

As to `COc1ccc(C2CCN(C(=O)C(=O)NO)CC2)cc1OC1CCCC1`, the melting point (usually the temperature of the solid-liquid transition) came to 124 °C.
Under `CC(C)(C)[Si](C)(C)Oc1cccc2[nH]ccc12` stands 80 to 81 °C; under `COc1cccc(C2CCCCNC2=O)c1` (stereo not given), 116 to 117 °C; under `CC(=O)Nc1cc(C(C)=O)ccc1OCCCCl`, 124 to 126 °C.
Under `O=C(O)c1cn(C2CC2)c2cc(N3CC(O)C3)c(F)cc2c1=O` stands 296 to 298 °C; under `OC1c2cc(OCc3ccc4ccccc4n3)ccc2OCCC1Oc1cccnc1` (stereo not given), 134 to 136 °C.
As for `OC(Cc1ccccc1Cl)(Cn1cncn1)C1(Cl)CC1` (stereo not given), the melting point is 107 °C.
`COc1cc2c(cc1OC)C(=O)C(=O)N(CCCN(C)CCCSc1ccccc1)CC2` yielded a melting point of 77 to 79 °C.
`COCCCNc1cc(C(F)(F)F)ccc1N` yielded a melting point of 69 to 70 °C.
Compound `O=c1[nH]c2ccccc2n1Cc1ccc(OC(F)(F)F)cc1` gave a melting point of 145 to 148 °C.
For the compound `CC(=O)OC1CCN(C2c3cc4nonc4cc3OC(C)(C)C2O)C(=O)C1` (stereo not given), the melting point is 204 to 206 °C.
`CCOC(=O)c1cc2cccc(N(C)S(=O)(=O)c3ccccc3OC)c2n1COC` gave a melting point of 124 to 125 °C.
Under `NCc1ccc(Nc2n[nH]c3ncnc(Nc4cccc(Cl)c4)c23)cc1` stands 207 to 209 °C; under `CC(=O)Oc1cc2occ(C=O)c(=O)c2cc1OC(C)=O`, 133 to 135 °C.
Under `O=[N+]([O-])c1oc2cc3c(cc2c1-c1ccccc1)CCC3` stands 161 to 164 °C; under `CN1CCN(Cc2ccc(Cl)nc2)C1=N[N+](=O)[O-]`, 165 to 167 °C.
Turning to `O=C(NC1(C(=O)O)CC1)OCCOC(=O)c1ccccc1`, the melting point lay within 174 to 176 °C.
Under `CCOC(=O)CC(=O)c1cc(I)ccc1F` stands 54 to 56 °C.
As to `O=C(O)Cn1cc(Cc2nc3c(F)c(F)cc(F)c3s2)c2cccc(F)c21`, the melting point lay in the range of 194 to 196 °C.
Consider `CCCN(CCC)C1Cc2c[nH]c3ccc(C(=O)C(C)(C)C)c(c23)C1` (stereo not given), for which the melting point worked out at 92 °C.
Compound `O=c1[nH]c2cc(F)c(NCC3COc4ccccc4C3)cc2o1` (stereo not given) registered a melting point of 223 to 224 °C.
The compound `CCCC[Si](C)(C)CCSCCCNC(=O)n1cc(F)c(=O)[nH]c1=O` had a melting point of 83.5 to 84 °C.
`COc1cc(/C=C/C(=O)CC(=O)C2(C)CC2)ccc1O`: the melting point was 78 to 80 °C.
As for `ClCc1ccc(CN=C(Nc2ccccc2-c2ccccc2)Nc2ccccc2-c2ccccc2)cc1`, the melting point lay within 87 to 91.5 °C.
The result for `O=C(CC1CCOCC1)N[C@H]1CC[C@H](CCN2CCC(c3cccc4c3CCO4)CC2)CC1` reads 191 °C; that for `CSc1c(C)[nH]c2ccc([N+](=O)[O-])cc12`, 198 °C.
For `CN1CCC(N(C)C(=O)c2ccc(Nc3nccc(Nc4ccc(C(F)(F)F)cc4)n3)cc2)CC1`, the melting point fell in the range of 238 to 244 °C.
`COc1c(OC)c(OC)c2c(c1OC)c(=O)c1ccc(OCc3ccccc3)c(OC)c1n2C` returned a melting point of 127 to 128 °C.
`Cc1cc(C)c2ncc(NC(=O)C3(C)CCc4c(C)c(O)c(C)c(C)c4O3)c(-c3ccccc3Cl)c2c1` (stereo not given) gave a melting point of 222 to 224 °C.
On to `CCCCCCCCCCCCc1nnn(CC(=O)Nc2ccc(F)cc2F)n1`, for which the melting point lay in the range of 103 to 106 °C.
Compound `COc1ccc(COC(=O)Nc2cncc(O)c2CCCOc2cccnc2Oc2cccc(Cl)c2)cc1` displayed a melting point of 150 °C.
In turn, `COC1OCC[C@@H]1NC(=O)[C@H](CC1CCCCC1)NC(=O)CNC(=O)COc1ccc2c(c1)Nc1ccccc1S2` (stereo not given in full) registered a melting point of 179 to 180 °C.
Turning to `CC(CCCC(=O)O)NC(=O)C(C)S` (stereo not given), the melting point is 78 to 79 °C.
For `O=C(NC1CCN(CCc2ccccc2)CC1)C1=Cc2cnc3cccc(n23)S1`, the melting point is 216 to 217 °C.
`Nc1sc(-c2cccnc2)c(CN(C2CCCCC2)C2CCCCC2)c1C(=O)c1ccc(Cl)cc1` registered a melting point of 168 to 170 °C.

Source of the values: a melting point compilation (Tetko et al.; mined from patent text by program, amines drawn as free bases though some values may be those of a salt).
